# Read-outs that look alike come from different tables or passages of the source.
# Columns and labels:
# [1] = system: A431-G2 cells (ABCG2 expressing); assay: Fluorescence-based cytotoxicity assay, ABCG2-expressing A431-G2 mOr
# Mes-Sa/Dx5 cells = assay: Fluorescence-based cytotoxicity assay, Mes-Sa/Dx5 eGFP; conditions: for RR (Dx5): resistance ratio = IC50 Mes-Sa/Dx5 / IC50 parental Mes-Sa
# [2] = system: Mes-Sa-B1 cells (Pgp overexpressing); assay: Fluorescence-based cytotoxicity assay, Mes-Sa-B1 mOr
# [3] = system: A431-B1 cells (ABCB1/P-glycoprotein expressing); assay: Fluorescence-based cytotoxicity assay, ABCB1-expressing A431-B1 mCh
# [4] = system: A431-2B1 cells (OATP2B1 expressing); assay: Fluorescence-based cytotoxicity assay, OATP2B1-expressing A431-2B1 mCh
# OATP2B1 [5] = target: T1, OATP2B1 (Homo sapiens, UniProt O94956); assay: Inhibition of OATP2B1-mediated Cascade Blue uptake (microplate-based uptake assay, A431-2B1 cells)
# T1 sequence (O94956 1-709): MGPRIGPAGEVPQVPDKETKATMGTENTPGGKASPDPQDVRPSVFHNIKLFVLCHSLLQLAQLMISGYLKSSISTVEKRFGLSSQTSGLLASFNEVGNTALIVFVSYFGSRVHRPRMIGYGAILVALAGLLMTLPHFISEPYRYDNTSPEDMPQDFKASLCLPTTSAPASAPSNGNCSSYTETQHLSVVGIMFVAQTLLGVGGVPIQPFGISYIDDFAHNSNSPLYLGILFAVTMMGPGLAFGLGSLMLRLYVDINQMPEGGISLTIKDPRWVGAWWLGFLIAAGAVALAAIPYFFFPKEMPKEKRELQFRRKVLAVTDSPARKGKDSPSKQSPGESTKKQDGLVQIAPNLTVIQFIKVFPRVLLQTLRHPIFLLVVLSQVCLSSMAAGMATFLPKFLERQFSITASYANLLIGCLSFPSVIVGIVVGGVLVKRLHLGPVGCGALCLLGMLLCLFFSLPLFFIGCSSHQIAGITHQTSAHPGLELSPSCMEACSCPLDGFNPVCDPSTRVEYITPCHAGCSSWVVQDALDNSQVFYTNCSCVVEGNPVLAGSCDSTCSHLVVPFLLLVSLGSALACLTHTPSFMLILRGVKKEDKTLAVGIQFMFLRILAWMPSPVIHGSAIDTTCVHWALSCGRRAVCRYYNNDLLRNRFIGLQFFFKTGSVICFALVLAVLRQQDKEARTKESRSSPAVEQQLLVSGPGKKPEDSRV
# OATP2B1 [6] = assay: Fluorescence-based cytotoxicity assay, OATP2B1-expressing A431-2B1 mCh; conditions: human
# A431 cells = assay: Fluorescence-based cytotoxicity assay, parental A431 eGFP; conditions: Homo sapiens
# [7] = selectivity ratio = IC50 parental Mes-Sa / IC50 Mes-Sa/Dx5, triple co-culture screen
# [8] = resistance ratio = IC50 A431B1 / IC50 parental A431, triple co-culture screen
# [9] = resistance ratio = IC50 Mes-Sa-B1 / IC50 parental Mes-Sa, triple co-culture screen
# [10] = primary screen, co-culture, Fig. 4 inset
# [11] = triple co-culture, result in words
# [12] = selectivity ratio = IC50 parental Mes-Sa / IC50 Mes-Sa-B1, triple co-culture screen
structure (smiles),measurement,setting,value
"Nc1nc(Cl)nc2c1ncn2[C@@H]1O[C@H](CO)[C@@H](O)[C@@H]1F [NSC-606869, Clofarabine]",Effect of ABCG2 expression on toxicity (A431-G2 vs parental A431),[1],conferred resistance
same,SR (Mes-Sa/DX5),Mes-Sa/Dx5 cells; [7],3.44
same,SR (Mes-Sa-B1),[2],0.91
"CC(C)C[C@H](NC(=O)[C@H](CCc1ccccc1)NC(=O)CN1CCOCC1)C(=O)N[C@@H](Cc1ccccc1)C(=O)N[C@@H](CC(C)C)C(=O)[C@@]1(C)CO1 [NSC-758252, Carfilzomib]",RR (A431B1),[3]; [8],47.4
same,RR (Dx5),Mes-Sa/Dx5 cells; triple co-culture screen,88.00
same,RR (Mes-Sa-B1),[2]; [9],55.50
"Nc1ccn([C@@H]2O[C@H](CO)[C@@H](O)C2(F)F)c(=O)n1 [NSC-613327, Gemcitabine]","SR (A431-2B1 vs parental A431), screening of DTP Oncology Set IV",[4]; [10],16.5
"O=c1[nH]c(=O)n([C@H]2C[C@H](O)[C@@H](CO)O2)cc1F [NSC-27640, Floxuridin]","SR (A431-2B1 vs parental A431), screening of DTP Oncology Set IV",[4]; [10],12.31
"CC[C@]1(O)C[C@H]2CN(CCc3c([nH]c4ccccc34)[C@@](C(=O)OC)(c3cc4c(cc3OC)N(C=O)[C@H]3[C@@](O)(C(=O)OC)[C@H](OC(C)=O)[C@]5(CC)C=CCN6CC[C@]43[C@@H]65)C2)C1 [NSC-67574, Vincristine]",RR (A431B1),[3]; [8],56.8
same,RR (Dx5),Mes-Sa/Dx5 cells; triple co-culture screen,36.00
same,RR (Mes-Sa-B1),[2]; [9],38.00
"S=c1[nH]cnc2nc[nH]c12 [NSC-755, Mercaptopurine]",Effect of ABCG2 expression on toxicity (A431-G2 vs parental A431),[1]; [11],conferred resistance
same,SR (Mes-Sa/DX5),Mes-Sa/Dx5 cells; [7],3.87
same,SR (Mes-Sa-B1),[2]; [12],0.39
"CC[C@]1(O)C[C@@H]2CN(CCc3c([nH]c4ccccc34)[C@@](C(=O)OC)(c3cc4c(cc3OC)N(C)[C@H]3[C@@](O)(C(=O)OC)[C@H](OC(C)=O)[C@]5(CC)C=CCN6CC[C@]43[C@@H]65)C2)C1 [NSC-49842, Vinblastine]",RR (A431B1),[3]; [8],244.4
same,RR (Dx5),Mes-Sa/Dx5 cells; triple co-culture screen,11.00
same,RR (Mes-Sa-B1),[2]; [9],15.00
"C/C=C1\NC(=O)[C@H]2CSSCC/C=C/[C@H](CC(=O)N[C@H](C(C)C)C(=O)N2)OC(=O)[C@H](C(C)C)NC1=O [NSC-754143, Romidepsin]",RR (A431B1),[3],> 97
same,RR (Dx5),Mes-Sa/Dx5 cells; triple co-culture screen,> 234.15
same,RR (Mes-Sa-B1),[2],331.70
"CC(=O)O[C@H]1C(=O)[C@@]2(C)[C@H]([C@H](OC(=O)c3ccccc3)[C@]3(O)C[C@H](OC(=O)[C@H](O)[C@@H](NC(=O)c4ccccc4)c4ccccc4)C(C)=C1C3(C)C)[C@]1(OC(C)=O)CO[C@@H]1C[C@@H]2O [NSC-125973, Taxol]",Effect of OATP2B1 expression on toxicity (A431-2B1 vs A431 eGFP),"[4]; co-culture screen, result in words",not transported by OATP2B1
same,RR (A431B1),[3]; [8],50.91
same,RR (Dx5),Mes-Sa/Dx5 cells; triple co-culture screen,497.67
same,RR (Mes-Sa-B1),[2]; [9],593.3
CC[C@@]1(O)C(=O)OCc2c1cc1n(c2=O)Cc2cc3c(CN(C)C)c(O)ccc3nc2-1 [topotecan],Effect of ABCG2 expression on toxicity (A431-G2 vs parental A431),[1]; [11],conferred resistance
COc1cc2ncnc(Nc3ccc(F)c(Cl)c3)c2cc1OCCCN1CCOCC1 [gefitinib],Effect of ABCG2 expression on toxicity (A431-G2 vs parental A431),[1]; [11],conferred resistance
"CC/C(=C(\c1ccccc1)c1ccc(OCCN(C)C)cc1)c1ccccc1 [NSC-180973, Tamoxifen]","SR, monoculture","[4]; IC50 A431 eGFP / IC50 A4312B1 mCh, monoculture",0.9
same,"SR (A431-2B1 vs parental A431), screening of DTP Oncology Set IV",[4]; [10],3.49
same,IC50,OATP2B1 [5],11 ± 0.7 µM
CS(=O)(=O)CCNCc1ccc(-c2ccc3ncnc(Nc4ccc(OCc5cccc(F)c5)c(Cl)c4)c3c2)o1 [lapatinib],Effect of ABCG2 expression on toxicity (A431-G2 vs parental A431),[1]; [11],conferred resistance
"Nc1nc2[nH]cc(CCc3ccc(C(=O)N[C@@H](CCC(=O)O)C(=O)O)cc3)c2c(=O)[nH]1 [NSC-698037, Pemetrexed]",SR (Mes-Sa/DX5),Mes-Sa/Dx5 cells; [7],3.29
same,SR (Mes-Sa-B1),[2]; [12],1.14
C[C@@H](Oc1cc(-c2cnn(C3CCNCC3)c2)cnc1N)c1c(Cl)ccc(F)c1Cl [crizotinib],RR (A431B1),[3]; [8],2.6
same,RR (Dx5),Mes-Sa/Dx5 cells; triple co-culture screen,21.3
same,RR (Mes-Sa-B1),[2]; [9],9.9
"Nc1ccn([C@@H]2O[C@H](CO)[C@@H](O)[C@@H]2O)c(=O)n1 [NSC-63878, Cytarabine]","SR (A431-2B1 vs parental A431), screening of DTP Oncology Set IV",[4],> 18.12
"C/C(=C\c1csc(C)n1)[C@@H]1C[C@@H]2O[C@]2(C)CCC[C@H](C)[C@H](O)[C@@H](C)C(=O)C(C)(C)[C@@H](O)CC(=O)N1 [NSC-747973, Ixabepilone]",RR (A431B1),[3],23.32
same,RR (Dx5),Mes-Sa/Dx5 cells; triple co-culture screen,9.66
same,RR (Mes-Sa-B1),[2],>208.3
"C1CN1c1nc(N2CC2)nc(N2CC2)n1 [NSC-9706, Triethylenemelamine]",SR (Mes-Sa/DX5),Mes-Sa/Dx5 cells,26.62
"CCc1c2c(nc3ccc(OC(=O)N4CCC(N5CCCCC5)CC4)cc13)-c1cc3c(c(=O)n1C2)COC(=O)[C@]3(O)CC [NSC-616348, Irinotecan]",IC50 at […],OATP2B1 [6],[…]
same,Effect of ABCG2 expression on toxicity (A431-G2 vs parental A431),[1],conferred resistance
same,IC50,"A431 cells; A-431, read-out: IC50 (µM) A431 eGFP, co-culture",13.8 µM
same,IC50,"A431 cells; A-431, read-out: IC50 (µM) A431 eGFP, monoculture",11.1 µM
"CO[C@H]1C(=O)[C@]2(C)[C@@H](OC)C[C@H]3OC[C@@]3(OC(C)=O)[C@H]2[C@H](OC(=O)c2ccccc2)[C@]2(O)C[C@H](OC(=O)[C@H](O)[C@@H](NC(=O)OC(C)(C)C)c3ccccc3)C(C)=C1C2(C)C [NSC-761432, Cabazitaxel]",RR (A431B1),[3]; [8],6.00
same,RR (Dx5),Mes-Sa/Dx5 cells; triple co-culture screen,> 107.00
same,RR (Mes-Sa-B1),[2]; [9],63.00
"CS(=O)(=O)c1ccc(C(=O)Nc2ccc(Cl)c(-c3ccccn3)c2)c(Cl)c1 [NSC-755986, Vismodegib]",SR (Mes-Sa/DX5),Mes-Sa/Dx5 cells; [7],> 3.31
"Cc1cn(-c2cc(NC(=O)c3ccc(C)c(Nc4nccc(-c5cccnc5)n4)c3)cc(C(F)(F)F)c2)cn1 [NSC-747599, Nilotinib]",SR (Mes-Sa/DX5),Mes-Sa/Dx5 cells; [7],4.68
same,SR (Mes-Sa-B1),[2]; [12],1.23
"CCC1=C[C@@H]2CN(C1)Cc1c([nH]c3ccccc13)[C@@](C(=O)OC)(c1cc3c(cc1OC)N(C)[C@H]1[C@@](O)(C(=O)OC)[C@H](OC(C)=O)[C@]4(CC)C=CCN5CC[C@]31[C@@H]54)C2 [NSC-608210, Vinorelbine]",RR (A431B1),[3]; [8],232.00
same,RR (Dx5),Mes-Sa/Dx5 cells; triple co-culture screen,861.00
same,RR (Mes-Sa-B1),[2]; [9],725.00
"Nc1nc2nc[nH]c2c(=S)[nH]1 [NSC-752, Thioguanine]",SR (Mes-Sa/DX5),Mes-Sa/Dx5 cells; [7],6.93
same,SR (Mes-Sa-B1),[2]; [12],0.41
CC(C)C[C@H](NC(=O)[C@H](Cc1ccccc1)NC(=O)c1cnccn1)B(O)O [bortezomib],RR (A431B1),[3]; [8],2.7
same,RR (Dx5),Mes-Sa/Dx5 cells; triple co-culture screen,17
same,RR (Mes-Sa-B1),[2]; [9],4.3
"Cc1nc(Nc2ncc(C(=O)Nc3c(C)cccc3Cl)s2)cc(N2CCN(CCO)CC2)n1 [NSC-732517, Dasatinib]",RR (A431B1),[3],11.5
same,Effect of ABCG2 expression on toxicity (A431-G2 vs parental A431),[1],conferred resistance
same,RR (Dx5),Mes-Sa/Dx5 cells; triple co-culture screen,> 3.60
same,RR (Mes-Sa-B1),[2]; [9],3.147

# — publication PMC6510822, “Identification of anticancer OATP2B1 substrates by an in vitro triple-fluorescence-based cytotoxicity screen” (Archives of Toxicology, 2019)
